# Data reported in DBAASP.
# Columns and labels:
# Test in all cases: ≥ marks a high value that may be exact or a test limit, other limits are often not marked, values filed in µg/mL are converted to µM
# [1] = tested on: Acinetobacter baumannii
# [2] = tested on: Enterobacter cloacae 2524
# [3] = tested on: Enterobacter cloacae 6780
# [4] = tested on: Escherichia coli 170
# [5] = tested on: Escherichia coli 4530
# [6] = tested on: Escherichia coli ATCC 25922
# [7] = tested on: Klebsiella pneumoniae 1625
# [8] = tested on: Klebsiella pneumoniae 913
# [9] = tested on: Pseudomonas aeruginosa 4677
# [10] = tested on: Acinetobacter calcoaceticus ATCC 2305-5
# [11] = tested on: Bacillus subtilis ICTA-07
# [12] = tested on: Enterococcus faecalis WHO 14
# [13] = tested on: Micrococcus luteus ATCC 4698
# [14] = tested on: Pseudomonas aeruginosa ATCC 27853
# [15] = tested on: Yersinia enterocolitica ATCC 9610
# [16] = tested on: Staphylococcus aureus ATCC 25929
# [17] = tested on: Escherichia coli ML-35
# [18] = tested on: Salmonella enterica subsp. enterica serovar Typhimurium ATCC 14028
# [19] = tested on: Serratia marcescens ATCC 8100
# [20] = tested on: Staphylococcus aureus ATCC 25923
# [21] = tested on: Bacillus subtilis KCTC 1021
# [22] = tested on: Candida albicans
# [23] = tested on: Escherichia coli
# [24] = tested on: Klebsiella pneumoniae ATCC 10031
# [25] = tested on: Proteus mirabilis ATCC 25933
# [26] = tested on: Pseudomonas aeruginosa ATCC 9027
# [27] = tested on: Pseudomonas putida
# [28] = tested on: Saccharomyces cerevisiae
# [29] = tested on: Serratia marcescens
# [30] = tested on: Shigella dysenteriae ATCC 9752
# [31] = tested on: Staphylococcus epidermidis ATCC 12228
compound,measurement,setting,value
CC[C@H](C)[C@H](N)C(=O)N[C@@H](C)C(=O)N[C@@H](CO)C(=O)N[C@@H](CCCCN)C(=O)N[C@H](C(=O)N[C@@H](C)C(=O)N[C@@H](CC(N)=O)C(=O)N[C@H](C(=O)N[C@H](C(=O)N[C@@H](CCC(N)=O)C(=O)N[C@@H](CCCCN)C(=O)N[C@@H](CC(C)C)C(=O)N[C@@H](CCCCN)C(=O)N[C@@H](CCCN=C(N)N)C(=O)N[C@@H](CCCCN)C(=O)N[C@@H](C)C(=O)N[C@@H](CCCCN)C(=O)N[C@@H](CC(N)=O)C(=O)N[C@@H](C)C(=O)N[C@H](C(=O)N[C@@H](C)C(=O)O)C(C)C)C(C)C)[C@@H](C)O)C(C)C [IASKVANTVQKLKRKAKNAVA],MIC,[1],8.84 µM
same,MIC,[2],6.25 µM
same,MIC,[3],≥ 50 µM
same,MIC,[4],12.5 µM
same,MIC,[5],≥ 50 µM
same,MIC,[6],> 50 µM
same,MIC,[7],≥ 50 µM
same,MIC,[8],25 µM
same,MIC,[9],≥ 50 µM
CC[C@H](C)[C@@H]1NC(=O)[C@H](CCCCN)NC(=O)[C@H](C(C)C)NC(=O)[C@H](CC(N)=O)NC(=O)[C@H](CC(=O)O)NC(=O)[C@@H]2CCCN2C(=O)[C@H](CC(C)C)NC(=O)CNC(=O)[C@H](Cc2ccc(O)cc2)NC(=O)[C@@H]2CSSC[C@@H]3NC(=O)[C@H](CCC(=O)O)NC(=O)[C@H]([C@@H](C)O)NC(=O)[C@H](CC(N)=O)NC(=O)[C@@H]4CSSC[C@H](NC(=O)[C@H](C)NC(=O)[C@@H]5CCCN5C(=O)[C@H](Cc5c[nH]c6ccccc56)NC(=O)[C@H](C)NC(=O)[C@H](CSSC[C@H](NC(=O)[C@H](CO)NC(=O)[C@H](Cc5ccc(O)cc5)NC(=O)[C@H](CCCCN)NC(=O)[C@@H](NC(=O)CNC(=O)[C@H](CCCN=C(N)N)NC(=O)[C@H](Cc5cnc[nH]5)NC(=O)[C@H](CCC(=O)O)NC(=O)[C@@H](NC(=O)[C@@H](NC(=O)[C@H](Cc5ccc(O)cc5)NC(=O)CNC(=O)[C@H](CC(=O)O)NC(=O)[C@@H](N)CCCCN)[C@@H](C)CC)[C@@H](C)CC)CSSC[C@@H](C(N)=O)NC(=O)[C@H](CCCCN)NC(=O)[C@H](CC(C)C)NC(=O)[C@H](CC(N)=O)NC(=O)[C@H](CC(N)=O)NC(=O)[C@H](CO)NC(=O)[C@H](CC(=O)O)NC(=O)[C@H](Cc5ccccc5)NC1=O)C(=O)N[C@@H](Cc1ccccc1)C(=O)N[C@@H](Cc1ccccc1)C(=O)NCC(=O)N[C@@H]([C@@H](C)O)C(=O)N[C@@H](CC(N)=O)C(=O)N[C@@H](CO)C(=O)N[C@@H](Cc1c[nH]c5ccccc15)C(=O)N4)NC(=O)[C@H](Cc1ccc(O)cc1)NC(=O)CNC(=O)[C@H](CO)NC(=O)[C@H](CO)NC(=O)CNC(=O)[C@H](CCCCN)NC(=O)[C@H](CCCCN)NC(=O)[C@H](CC(C)C)NC(=O)[C@H]([C@@H](C)O)NC3=O)C(=O)N[C@@H](Cc1c[nH]c3ccccc13)C(=O)N2 [KDGYIIEHRGCKYSCFFGTNSWCNTECTLKKGSSGYCAWPACWCYGLPDNVKIFDSNNLKC],MIC,[10],≥ 43 µM
same,MIC,[11],22 µM
same,MIC,[12],≥ 34 µM
same,MIC,[13],≥ 43 µM
same,MIC,[14],77 µM
same,MIC,[15],≥ 49 µM
CC(C)C[C@H](NC(=O)[C@H](CO)NC(=O)[C@@H]1CCCN1C(=O)[C@H](CO)NC(=O)[C@H](CC(C)C)NC(=O)[C@@H](N)CCCCN)C(=O)NCC(=O)N1CCC[C@H]1C(=O)N[C@H](C(=O)N[C@@H](CO)C(=O)N[C@@H](CCCCN)C(=O)NCC(=O)N[C@@H](CCCCN)C(=O)N[C@@H](CC(C)C)C(=O)N[C@@H](CC(C)C)C(=O)N[C@@H](C)C(=O)NCC(=O)N[C@@H](CCC(N)=O)C(=O)N[C@@H](CCCN=C(N)N)C(N)=O)C(C)C [KLSPSLGPVSKGKLLAGQR],MIC,[6],33 µM
same,MIC,[16],≥ 66 µM
CC(C)C[C@H](NC(=O)[C@H](CCCN=C(N)N)NC(=O)[C@@H]1CCCN1C(=O)[C@@H]1CCCN1C(=O)[C@H](CCCN=C(N)N)NC(=O)[C@@H]1CCCN1)C(=O)N1CCC[C@H]1C(=O)N[C@@H](CCCN=C(N)N)C(=O)N1CCC[C@H]1C(=O)N[C@@H](CCCN=C(N)N)C(=O)N1CCC[C@H]1C(=O)N[C@@H](CCCN=C(N)N)C(=O)N1CCC[C@H]1C(=O)N[C@@H](CC(C)C)C(=O)N1CCC[C@H]1C(=O)N[C@@H](Cc1ccccc1)C(=O)N1CCC[C@H]1C(=O)N[C@@H](CCCN=C(N)N)C(=O)N1CCC[C@H]1C(=O)O [PRPPRLPRPRPRPLPFPRP],MIC,[6],64 µM
same,MIC,[17],≥ 64 µM
same,MIC,[18],128 µM
same,MIC,[19],≥ 128 µM
same,MIC,[20],> 128 µM
CC[C@H](C)[C@H](NC(=O)[C@H](CC(C)C)NC(=O)[C@H](CO)NC(=O)[C@H](Cc1ccccc1)NC(=O)[C@H](CC(C)C)NC(=O)[C@@H](N)CO)C(=O)N[C@@H](CCCCN)C(=O)N[C@@H](C)C(=O)NCC(=O)N[C@@H](C)C(=O)N[C@@H](CCCCN)C(=O)N[C@@H](Cc1ccccc1)C(=O)N[C@@H](CC(C)C)C(=O)NCC(=O)N[C@@H](CCCCN)C(=O)N[C@@H](CC(N)=O)C(=O)N[C@@H](CC(C)C)C(=O)N[C@@H](CC(C)C)C(=O)N[C@@H](CCCCN)C(=O)N[C@@H](CCC(N)=O)C(=O)NCC(=O)N[C@@H](C)C(=O)N[C@@H](CS)C(=O)N[C@@H](Cc1ccc(O)cc1)C(=O)N[C@@H](C)C(=O)N[C@@H](C)C(=O)N[C@H]1CSSC[C@@H](C(=O)O)NC(=O)[C@H](CCC(N)=O)NC(=O)[C@H](CCCCN)NC(=O)[C@H](CO)NC(=O)[C@H](C)NC(=O)[C@H](CCCCN)NC1=O [SLFSLIKAGAKFLGKNLLKQGACYAACKASKQC],MIC,[21],14.4 µM
same,MIC,[22],> 57.8 µM
same,MIC,[23],7.22 µM
same,MIC,[24],28.9 µM
same,MIC,[13],1.44 µM
same,MIC,[25],≥ 57.8 µM
same,MIC,[26],14.4 µM
same,MIC,[27],14.4 µM
same,MIC,[28],≥ 57.8 µM
same,MIC,[18],> 57.8 µM
same,MIC,[29],≥ 57.8 µM
same,MIC,[30],7.22 µM
same,MIC,[31],14.4 µM
